Data: patent US20220062233A1 (The Board of Trustees of the Leland Stanford Junior …, priority 2018, published 2022)

Assays:
[1] = target: T1, interaction between Supt4h and NGN (subunit of Supt5h) (Homo sapiens, UniProt O00267+P63272); experiment: Split Gaussia luciferase complementation assay (M2-8 Luciferase); assay type: cell-based; conditions: M2-8 cells
T1 construct: expressed in transfected cells
Experimental: A. Split Gaussia Luciferase Complementation Assay […]
i: pNBR-X1-Supt4-Gluc1 and pNEBR-X1-NGN-Gluc2
The HA-Supt4h and Flag-NGN fragments are amplified by PCR using the plasmid pHA-Supt4h-YC and pFlag-NGN-YN and sub-cloned individually into pcDNA3.1-Gluc1 and pcDNA3.1-Gluc2 (described in “A highly sensitive protein-protein interaction assay based on Gaussia luciferase” published at Nat Methods. 2006 December; 3(12):977-9. Epub 2006 Nov. 12). Then HA-Supt4h-Gluc1 and Flag-NGN-Gluc2 are amplified by PCR and inserted to pNEBR-X1-Hygro (New England BioLabs), which contain RheoSwitch responsive element under the control of RheoSwitch ligand. […]
ii: pNEBR-X1-Supt4h-G1-NGN-G2
PCR products containing the sequence from 5XRE to polyA in pNEBR-X1-NGN-G2 are inserted to pNEBR-X1-Supt4h-G1 at Pcil site to generate Supt4h-G1 and NGN-G2 bidirectional under their own RheoSwitch responsive element and polyA in the same plasmid. […]
b. Stable Cloned Cell Line i: 293-R1 is a cloned cell line which is engineered to constitutively express RSL1 receptor/activator by transfecting HEK 293 cells with pNEBR-R1 plasmid (New England BioLabs) and selected with blasticidin. […]
ii: M2-8 is a cloned 293-R1 cell which can inducibly express pNEBR-X1-Supt4h-G1-NGN-G2 by addition of RSL1. Two point mutations ([…] and M110I) are introduced to the GL1 and GL2 for better stability according to “A high-throughput cell-based Gaussia luciferase reporter assay for identifying modulators of fibulin-3 secretion” published in J Biomol Screen. 2013 July; 18(6):647-58. The cell line is selected by hygromycin. […]
c. Cell Culture and Transfection Condition
All the HEK-293 cells and derivative clones are maintained in DMEM containing 10% FBS plus corresponding antibiotics (250 μg/ml hygromycin B, 10 μg/ml blasticidin or both) at 37° C., 5% CO2. All the transfections are done by using Lipofectamine 2000 (Invitrogen) according to the manufacturer's instructions. […]
d. Bioluminescence Assay from Cell Lysates
Plasmids harboring the Gluc1 and Gluc2 are co-transfected in a 1:1 ratio into 293-R1 cells plated on tissue culture treated 24-well plates using Lipofectamine 2000 according to the manufacturer's instructions. For stable M2-8 cells, the cells are directly plated into 96-well or 384-well white plates. Twenty-four hours later, RheoSwitch ligand with or without test compound is added to the cells for induction/drug treatment. After 24 hr, the cells are washed with PBS and the plate was stored at −20° C. overnight. Lysis buffer [30 mM Tris-HCl (pH 8.0) 5 mM NaCl, 0.1% Triton X-100] with 10 μg/ml native coelenterazine (Nanolight Technology) is then added to the cells at room temperature for one hour in the dark. After shaking for about 1 min, 40 μl of cell lysate are transferred to a white 96-well plate. For M2-8 in white micro plate, no transfer is needed. Signal intensities (integrated 100 ms) were read on Tecan Infinite M200 or M1000.
The split Gaussia luciferase complementation assay measures the interaction between Sup4h and NGN. NGN is the subunit of Supt5h that binds to Supt4h.

[2] = test system: M2-8 cells; experiment: M2-8 Cell viability Assay; assay type: cell-based; conditions: at the concentration of 1000 nM

Row | Compound | IC50 [1] [nM] | M2-8 Cell viability [2]
1 | c1ccc(CN[C@@H]2CCCc3c2[nH]c2ccccc32)cc1 [Compound 4, (R)—N-benzyl-2,3,4,9-tetrahydro-1H-carbazol-1-amine] | > 1000 | + (cell viability is greater than 50% at the concentration of 1000 nM)
2 | c1ccc(CN[C@@H]2CCCc3c2[nH]c2ccc(-c4ccccc4)cc32)cc1 [Compound 8, (R)—N-benzyl-6-phenyl-2,3,4,9-tetrahydro-1H-carbazol-1-amine] | > 1000 | + (cell viability is greater than 50% at the concentration of 1000 nM)
3 | Oc1ccc(-c2ccc3[nH]c4c(c3c2)CCC[C@H]4NCc2ccccc2)cc1 [Compound 10, (R)-4-(1-(benzylamino)-2,3,4,9-tetrahydro-1H-carbazol-6-yl)phenol] | > 1000 | + (cell viability is greater than 50% at the concentration of 1000 nM)
4 | c1ccc(CN[C@@H]2CCCc3c2[nH]c2ccc(-c4cn[nH]c4)cc32)cc1 [Compound 11, (R)—N-benzyl-6-(1H-pyrazol-4-yl)-2,3,4,9-tetrahydro-1H-carbazol-1-amine] | > 1000 | + (cell viability is greater than 50% at the concentration of 1000 nM)
5 | OCCc1ccc2[nH]c3c(c2c1)CCC[C@H]3NCc1ccccc1 [Compound 12, (R)-2-(1-(benzylamino)-2,3,4,9-tetrahydro-1H-carbazol-6-yl)ethan-1-ol] | > 1000 | + (cell viability is greater than 50% at the concentration of 1000 nM)
6 | N[C@@H]1CCCc2c1[nH]c1ccc(Br)cc21 [Compound 15] | > 1000 | + (cell viability is greater than 50% at the concentration of 1000 nM)
7 | CC1(C)CCC(NCc2ccccc2)c2[nH]c3ccc(Br)cc3c21 (stereo not drawn) [Compound 16] | > 1000 | + (cell viability is greater than 50% at the concentration of 1000 nM)
8 | CC1(C)Cc2c([nH]c3ccc(Br)cc23)[C@H](NCc2ccccc2)C1 [Compound 17] | > 1000 | + (cell viability is greater than 50% at the concentration of 1000 nM)
9 | Cn1c2c(c3cc(Br)ccc31)CCCC2NCc1ccccc1 (stereo not drawn) [Compound 18] | > 1000 | + (cell viability is greater than 50% at the concentration of 1000 nM)
10 | C(#CC1CC1)c1ccc2[nH]c3c(c2c1)CCC[C@H]3NCc1ccccc1 [Compound 34, (R)—N-benzyl-6-(cyclopropylethynyl)-2,3,4,9-tetrahydro-1H-carbazol-1-amine] | > 1000 | + (cell viability is greater than 50% at the concentration of 1000 nM)
11 | CC(=O)c1ccc2[nH]c3c(c2c1)CCC[C@H]3NCc1ccccc1 [Compound 46, (R)-1-(1-(benzylamino)-2,3,4,9-tetrahydro-1H-carbazol-6-yl)ethan-1-one] | 301 to 1000 | + (cell viability is greater than 50% at the concentration of 1000 nM)

More lines, main results first:

Row | IC50 [1] [nM] | Compound | M2-8 Cell viability [2]
12 | 301 to 1000 | CC(C)(O)c1ccc(C(CO)N[C@@H]2CCCc3c2[nH]c2ccc(Br)cc32)cc1 (mixture of isomers) [Compound 51, 2-(4-(1-(((R)-6-bromo-2,3,4,9-tetrahydro-1H-carbazol-1-yl)amino)-2-hydroxyethyl)phenyl) propan-2-ol] | + (cell viability is greater than 50% at the concentration of 1000 nM)
13 | ≤ 100 | CC(C)(O)c1ccc(C(CF)N[C@@H]2CCCc3c2[nH]c2ccc(Br)cc32)cc1 (single isomer, unassigned) [Compound 54] | + (cell viability is greater than 50% at the concentration of 1000 nM)
14 | ≤ 100 | CC(C)(O)c1ccc(C(CF)N[C@@H]2CCCc3c2[nH]c2ccc(Br)cc32)cc1 (single isomer, unassigned) [Compound 55] | + (cell viability is greater than 50% at the concentration of 1000 nM)
15 | 301 to 1000 | CCc1ccc2[nH]c3c(c2c1)CCC[C@H]3NCc1ccccc1 [Compound 6] | + (cell viability is greater than 50% at the concentration of 1000 nM)
16 | 301 to 1000 | OCC#Cc1ccc2[nH]c3c(c2c1)CCC[C@H]3NCc1ccccc1 [Compound 7, (R)-3-(1-(benzylamino)-2,3,4,9-tetrahydro-1H-carbazol-6-yl)prop-2-yn-1-ol] | + (cell viability is greater than 50% at the concentration of 1000 nM)
17 | 301 to 1000 | Oc1cccc(-c2ccc3[nH]c4c(c3c2)CCC[C@H]4NCc2ccccc2)c1 [Compound 9, (R)-3-(1-(benzylamino)-2,3,4,9-tetrahydro-1H-carbazol-6-yl)phenol] | + (cell viability is greater than 50% at the concentration of 1000 nM)
18 | 101 to 300 | Brc1ccc2[nH]c3c(c2c1)CCC[C@H]3NCc1ccc2ccccc2c1 [Compound 20, (R)-6-bromo-N-(naphthalen-2-ylmethyl)-2,3,4,9-tetrahydro-1H-carbazol-1-amine] | + (cell viability is greater than 50% at the concentration of 1000 nM)
19 | 101 to 300 | Brc1ccc2[nH]c3c(c2c1)CCC[C@H]3NCc1ccc(N2CCCC2)cc1 [Compound 22, (R)-6-bromo-N-(4-(pyrrolidin-1-yl)benzyl)-2,3,4,9-tetrahydro-1H-carbazol-1-amine] | + (cell viability is greater than 50% at the concentration of 1000 nM)
20 | 301 to 1000 | COc1ccccc1CN[C@@H]1CCCc2c1[nH]c1ccc(Br)cc21 [Compound 23, (R)-6-bromo-N-(2-methoxybenzyl)-2,3,4,9-tetrahydro-1H-carbazol-1-amine] | + (cell viability is greater than 50% at the concentration of 1000 nM)
21 | 101 to 300 | CN(C)c1ccc(CN[C@@H]2CCCc3c2[nH]c2ccc(Br)cc32)cc1 [Compound 29, (R)-6-bromo-N-(4-(dimethylamino)benzyl)-2,3,4,9-tetrahydro-1H-carbazol-1-amine] | + (cell viability is greater than 50% at the concentration of 1000 nM)
22 | 101 to 300 | O=[N+]([O-])c1ccc(CN[C@@H]2CCCc3c2[nH]c2ccc(Br)cc32)cc1 [Compound 30, (R)-6-bromo-N-(4-nitrobenzyl)-2,3,4,9-tetrahydro-1H-carbazol-1-amine] | + (cell viability is greater than 50% at the concentration of 1000 nM)
23 | 301 to 1000 | Cn1cncc1CN[C@@H]1CCCc2c1[nH]c1ccc(Br)cc21 [Compound 35, (R)-6-bromo-N-((1-methyl-1H-imidazol-5-yl)methyl)-2,3,4,9-tetrahydro-1H-carbazol-1-amine] | + (cell viability is greater than 50% at the concentration of 1000 nM)
24 | 101 to 300 | Brc1ccc2[nH]c3c(c2c1)CCC[C@H]3NCc1ccc(I)cc1 [Compound 40, (R)-6-bromo-N-(4-iodobenzyl)-2,3,4,9-tetrahydro-1H-carbazol-1-amine] | + (cell viability is greater than 50% at the concentration of 1000 nM)
25 | 101 to 300 | C=C(C)c1ccc(CN[C@@H]2CCCc3c2[nH]c2ccc(Br)cc32)cc1 [Compound 47, (R)-6-bromo-N-(4-(prop-1-en-2-yl)benzyl)-2,3,4,9-tetrahydro-1H-carbazol-1-amine] | + (cell viability is greater than 50% at the concentration of 1000 nM)
26 | ≤ 100 | CC(C)(OCCO)c1ccc(CN[C@@H]2CCCc3c2[nH]c2ccc(Br)cc32)cc1 [Compound 56, (R)-2-((2-(4-(((6-bromo-2,3,4,9-tetrahydro-1H-carbazol-1-yl)amino)methyl)phenyl)propan-2-yl)oxy)ethan-1-ol] | + (cell viability is greater than 50% at the concentration of 1000 nM)
27 | ≤ 100 | OCc1cccc(CN[C@@H]2CCCc3c2[nH]c2ccc(Br)cc32)c1 [Compound 57, (R)-(3-(((6-bromo-2,3,4,9-tetrahydro-1H-carbazol-1-yl)amino)methyl)phenyl)methanol] | + (cell viability is greater than 50% at the concentration of 1000 nM)
